Experimental data as given in patent publication EP4692073A1, “CYCLIC AMINE DERIVATIVE, AND COMPOSITION AND USE THEREOF” (Shanghai Jingxin Biomedical Co., Ltd., priority 2023, dated 2024).

What was measured:
TA98 = assay: Salmonella typhimurium reverse mutation test, TA98; type: cell-based; set-up: key: + indicates a positive mutagenic result; - indicates a negative mutagenic result
Procedure: (§1) The revived strains or a single colony from the master plate were inoculated into the broth, and cultured in a thermostat gas bath vibrator at 100 to 120 rpm and 37±1°C for 10 to 16 hours, marked and stored for later use. The bottom agar medium (containing an appropriate amount of agar, Vogel-Bonner buffer, 20% glucose solution and 20% magnesium sulfate solution) was poured into a six-well plate, approximately 20mL-25mL into each well, and allowed to cool and solidify naturally, marked each well and stored for later use.
(§2) Three wells were set up in each group for parallel experiments. The top agar medium was sterilized under high pressure and kept warm at about […]. In each test tube, 0.1mL of negative control (DMSO) or positive control or test sample, 0.1mL of bacterial solution suspension, 0.5mL of phosphate buffer (0.2M PBS) (-S9) or 0.5mL of S9 mixed solution (+S9) and 2.5mL top culture medium were added, after vortex mixing, and then quickly and evenly spread on the culture dish which was already spreaded with the bottom agar medium. After natural cooling and solidification, the culture dish was inverted and placed in a 37°C incubator for 48 to 72 hours. After culturing for 48 to 72 hours, the culture dish was taked out, and the number of revertant colonies in each well was counted, the growth background was observed under a microscope to determine whether there was antibacterial or bactericidal activity, and the experimental results were recorded.

TA1535 = assay: Salmonella typhimurium reverse mutation test, TA1535; type: cell-based; set-up: key: + indicates a positive mutagenic result; - indicates a negative mutagenic result
Procedure: as §1, §2

TA1537 = assay: Salmonella typhimurium reverse mutation test, TA1537; type: cell-based; set-up: key: + indicates a positive mutagenic result; - indicates a negative mutagenic result
Procedure: as §1, §2

TA102 = assay: Salmonella typhimurium reverse mutation test, TA102; type: cell-based; set-up: key: + indicates a positive mutagenic result; - indicates a negative mutagenic result
Procedure: as §1, §2

Lp(a) = assay: In vivo Lp(a) inhibition in cynomolgus monkeys; details: 3 mg/kg oral gavage once daily for 5 days, serum Lp(a) 8 hours after administration on Day 5
Procedure: • 1. Experimental purpose: The purpose of this test is to test the inhibitory effect of the compounds of the present invention on Lp(a) in cynomolgus monkeys • 2. Experimental instruments and reagents: Fully automatic biochemical analyzer (Hitachi 7600 model), • 3. Experimental methods: The cynomolgus monkeys were housed with a standard light cycle (12 hours light/12 hours dark), at a room temperature of 18-26°C and a relative humidity of 40-70%, with drinking water provided continuously for 24 hours, and feed was provided to the animals twice daily, in the morning (about 10:30) and in the afternoon (about 15:00). Five days prior to the study, the cynomolgus monkeys were randomly assigned to groups (n=3/group) based on their body weight and baseline serum Lp(a) concentration for the study. The administration volume was calculated according to the body weight of the animals on the first day of administration, and the administration volume was 5 mL/kg, administered once daily by oral gavage for 5 consecutive days, and the dosage was 3 mg/kg, and the solvent was 1% HEC and 0.25% Tween 80.
The adaptation period (after fasting overnight), before administration on Day 1, and 8 hours after administration on Day 5. […] The serum Lp(a) level was detected using a fully automatic biochemical analyzer. […]

TA100 = assay: Salmonella typhimurium reverse mutation test, TA100; type: cell-based; set-up: key: + indicates a positive mutagenic result; - indicates a negative mutagenic result
Procedure: as §1, §2

[1] = TA98, no S9 mixture, 62µg/ dish
[2] = TA98, no S9 mixture, 185µg/ dish
[3] = TA98, no S9 mixture, 556µg/ dish
[4] = TA98, no S9 mixture, 1667µg/ dish
[5] = TA98, no S9 mixture, 5000µg/ dish
[6] = TA98, with S9 mixture, 62µg/ dish
[7] = TA98, with S9 mixture, 185µg/ dish
[8] = TA98, with S9 mixture, 556µg/ dish
[9] = TA98, with S9 mixture, 1667µg/ dish
[10] = TA98, with S9 mixture, 5000µg/ dish
[11] = TA1535, no S9 mixture, 62µg/ dish
[12] = TA1535, no S9 mixture, 185µg/ dish
[13] = TA1535, no S9 mixture, 556µg/ dish
[14] = TA1535, no S9 mixture, 1667µg/ dish
[15] = TA1535, no S9 mixture, 5000µg/ dish
[16] = TA1535, with S9 mixture, 62µg/ dish
[17] = TA1535, with S9 mixture, 185µg/ dish
[18] = TA1535, with S9 mixture, 556µg/ dish
[19] = TA1535, with S9 mixture, 1667µg/ dish
[20] = TA1535, with S9 mixture, 5000µg/ dish
[21] = TA1537, no S9 mixture, 62µg/ dish
[22] = TA1537, no S9 mixture, 185µg/ dish
[23] = TA1537, no S9 mixture, 556µg/ dish
[24] = TA1537, no S9 mixture, 1667µg/ dish
[25] = TA1537, no S9 mixture, 5000µg/ dish
[26] = TA1537, with S9 mixture, 62µg/ dish
[27] = TA1537, with S9 mixture, 185µg/ dish
[28] = TA1537, with S9 mixture, 556µg/ dish
[29] = TA1537, with S9 mixture, 1667µg/ dish
[30] = TA1537, with S9 mixture, 5000µg/ dish
[31] = TA102, no S9 mixture, 62µg/ dish
[32] = TA102, no S9 mixture, 185µg/ dish
[33] = TA102, no S9 mixture, 556µg/ dish
[34] = TA102, no S9 mixture, 1667µg/ dish
[35] = TA102, no S9 mixture, 5000µg/ dish
[36] = TA102, with S9 mixture, 62µg/ dish
[37] = TA102, with S9 mixture, 185µg/ dish
[38] = TA102, with S9 mixture, 556µg/ dish
[39] = TA102, with S9 mixture, 1667µg/ dish
[40] = TA102, with S9 mixture, 5000µg/ dish
[41] = TA100, no S9 mixture, 62µg/ dish
[42] = TA100, no S9 mixture, 185µg/ dish
[43] = TA100, no S9 mixture, 556µg/ dish
[44] = TA100, no S9 mixture, 1667µg/ dish
[45] = TA100, no S9 mixture, 5000µg/ dish
[46] = TA100, with S9 mixture, 62µg/ dish
[47] = TA100, with S9 mixture, 185µg/ dish
[48] = TA100, with S9 mixture, 556µg/ dish
[49] = TA100, with S9 mixture, 1667µg/ dish
[50] = TA100, with S9 mixture, 5000µg/ dish

`O=C(O)[C@@H](Cc1cccc(CN(Cc2cccc(C[C@H](C(=O)O)[C@H]3CCNC3)c2)Cc2cccc(C[C@H](C(=O)O)[C@H]3CCNC3)c2)c1)[C@H]1CCNC1` [Comparative Example 1] was tested, and the mutagenicity (TA98; [1]) was “-”, the mutagenicity (TA98; [2]) was “+” and the mutagenicity (TA98; [3]) was “+”. For the same compound, the mutagenicity (TA98; [4]) was “+”, the mutagenicity (TA98; [5]) was “+” and the mutagenicity (TA98; [6]) was “-”. The mutagenicity (TA98; [7]) was “-”, the mutagenicity (TA98; [8]) was “+” and the mutagenicity (TA98; [9]) was “+”. For the same compound, the mutagenicity (TA98; [10]) was “+”, the mutagenicity (TA1535; [11]) was “-” and the mutagenicity (TA1535; [12]) was “-”. The mutagenicity (TA1535; [13]) was “-”, the mutagenicity (TA1535; [14]) was “-” and the mutagenicity (TA1535; [15]) was “-”. For the same compound, the mutagenicity (TA1535; [16]) was “-”, the mutagenicity (TA1535; [17]) was “-” and the mutagenicity (TA1535; [18]) was “-”. The mutagenicity (TA1535; [19]) was “-”, the mutagenicity (TA1535; [20]) was “-” and the mutagenicity (TA1537; [21]) was “-”. For the same compound, the mutagenicity (TA1537; [22]) was “-”, the mutagenicity (TA1537; [23]) was “-” and the mutagenicity (TA1537; [24]) was “-”. For the same compound, the mutagenicity (TA1537; [25]) was “-”, the mutagenicity (TA1537; [26]) was “-” and the mutagenicity (TA1537; [27]) was “-”. For the same compound, the mutagenicity (TA1537; [28]) was “-”, the mutagenicity (TA1537; [29]) was “-” and the mutagenicity (TA1537; [30]) was “-”. The mutagenicity (TA102; [31]) was “-”, the mutagenicity (TA102; [32]) was “-” and the mutagenicity (TA102; [33]) was “-”. The mutagenicity (TA102; [34]) was “-”, the mutagenicity (TA102; [35]) was “-” and the mutagenicity (TA102; [36]) was “-”. For the same compound, the mutagenicity (TA102; [37]) was “-”, the mutagenicity (TA102; [38]) was “-” and the mutagenicity (TA102; [39]) was “-”. For the same compound, the mutagenicity (TA102; [40]) was “-”, the “Lp(a) inhibition rate” value (Lp(a)) was 32.87±17.30% and the mutagenicity (TA100; [41]) was “-”. The mutagenicity (TA100; [42]) was “-”, the mutagenicity (TA100; [43]) was “-” and the mutagenicity (TA100; [44]) was “-”. For the same compound, the mutagenicity (TA100; [45]) was “-”, the mutagenicity (TA100; [46]) was “-” and the mutagenicity (TA100; [47]) was “-”. For the same compound, the mutagenicity (TA100; [48]) was “-”, the mutagenicity (TA100; [49]) was “-” and the mutagenicity (TA100; [50]) was “-”.
For `O=C(O)[C@@H](Cc1cccc(CN(Cc2cccc(C[C@H](C(=O)O)[C@H]3CCNC3)c2)C(=O)c2cccc(C[C@H](C(=O)O)[C@H]3CCNC3)c2)c1)[C@H]1CCNC1` [Example 5], the mutagenicity (TA98; [1]) was “-”, the mutagenicity (TA98; [2]) was “-” and the mutagenicity (TA98; [3]) was “-”. The mutagenicity (TA98; [4]) was “-”, the mutagenicity (TA98; [5]) was “-” and the mutagenicity (TA98; [6]) was “-”. The mutagenicity (TA98; [7]) was “-”, the mutagenicity (TA98; [8]) was “-” and the mutagenicity (TA98; [9]) was “-”. The mutagenicity (TA98; [10]) was “-”, the mutagenicity (TA1535; [11]) was “-” and the mutagenicity (TA1535; [12]) was “-”. For the same compound, the mutagenicity (TA1535; [13]) was “-”, the mutagenicity (TA1535; [14]) was “-” and the mutagenicity (TA1535; [15]) was “-”. For the same compound, the mutagenicity (TA1535; [16]) was “-”, the mutagenicity (TA1535; [17]) was “-” and the mutagenicity (TA1535; [18]) was “-”. The mutagenicity (TA1535; [19]) was “-”, the mutagenicity (TA1535; [20]) was “-” and the mutagenicity (TA1537; [21]) was “-”. The mutagenicity (TA1537; [22]) was “-”, the mutagenicity (TA1537; [23]) was “-” and the mutagenicity (TA1537; [24]) was “-”. The mutagenicity (TA1537; [25]) was “-”, the mutagenicity (TA1537; [26]) was “-” and the mutagenicity (TA1537; [27]) was “-”. For the same compound, the mutagenicity (TA1537; [28]) was “-”, the mutagenicity (TA1537; [29]) was “-” and the mutagenicity (TA1537; [30]) was “-”. The mutagenicity (TA102; [31]) was “-”, the mutagenicity (TA102; [32]) was “-” and the mutagenicity (TA102; [33]) was “-”. The mutagenicity (TA102; [34]) was “-”, the mutagenicity (TA102; [35]) was “-” and the mutagenicity (TA102; [36]) was “-”. For the same compound, the mutagenicity (TA102; [37]) was “-”, the mutagenicity (TA102; [38]) was “-” and the mutagenicity (TA102; [39]) was “-”. For the same compound, the mutagenicity (TA102; [40]) was “-”, the “Lp(a) inhibition rate” value (Lp(a)) was 50.23±20.41% and the mutagenicity (TA100; [41]) was “-”. For the same compound, the mutagenicity (TA100; [42]) was “-”, the mutagenicity (TA100; [43]) was “-” and the mutagenicity (TA100; [44]) was “-”. The mutagenicity (TA100; [45]) was “-”, the mutagenicity (TA100; [46]) was “-” and the mutagenicity (TA100; [47]) was “-”. The mutagenicity (TA100; [48]) was “-”, the mutagenicity (TA100; [49]) was “-” and the mutagenicity (TA100; [50]) was “-”.
